Experimental data as given in ChEMBL document CHEMBL5608113, “Targeting of CAF-induced therapy resistance in CRC organoid-stroma co-cultures” (2024).

System: Colon cancer organoid
Assay: Targeting of F14 CAF-induced therapy resistance in O23 CRC organoid-stroma co-culture. Cell viability is reported with Gefitinib.
Format: functional, Homo sapiens
Conditions: Homo sapiens, Concentration 10 uM; read-out: Cell Viability

SMILES	viability at 10 µM
Cc1noc(C)c1-c1cnc2c(-c3ccc(C(=O)O)cc3)cn([C@@H](C)c3ccccn3)c2c1 [PLX-51107]	78.8%
N#CC1(c2ccccn2)CCN(Cc2cc(C(=O)N3CCCC3)c(=O)n3ccccc23)CC1 [MSD-M1PAM-NC]	81.2%
CC(=O)Nc1nc(CN2CCC[C@H](Cc3cc(C)nc(C)c3)C2)cs1 [JNJ-73924149]	79.3%
Cn1cc(Cl)c2c(Oc3c(F)cc(Nc4cc(Cl)nc(N)n4)cc3F)ccnc21 [BAY-4900]	40.3%
CCn1cc(-c2cccc(C(F)(F)F)c2)c2sc(C(=N)NC3CCS(=O)(=O)CC3)cc2c1=O	68.8%
CCC(=O)N[C@@H]1CC[C@H](C(=O)N(C)c2ccc(-c3nc4ccccc4o3)cc2)C1 [BI 99990]	69.7%
CC(C)N(CCCNC(=O)Nc1ccc(C(C)(C)C)cc1)C[C@H]1O[C@@H](n2cc(Br)c3c(N)ncnc32)[C@H](O)[C@@H]1O	34%
CCCCN(CCCC)C(=O)CN1C[C@@H](c2cc(OC)c3c(c2)OCO3)[C@H](C(=O)O)[C@H]1CC(C)(C)CCC [A-545]	47%
CC(=O)NCC(=O)N1[C@@H]2CC[C@H]1c1ccc(Nc3ncc(C(F)(F)F)c(NC4CCC4)n3)cc12 [PF-03814735]	25.7%
O=C(Nc1cccnn1)N1CC(C/C=C/c2cncc(Oc3ccc(C(F)(F)F)cn3)n2)C1	50.3%

System: Colon cancer organoid
Assay: Targeting of F14 CAF-induced therapy resistance in O23 CRC organoid-stroma co-culture. Cell viability is reported with SN-38.
Format: functional, Homo sapiens
Conditions: Homo sapiens, Concentration 10 uM; read-out: Cell Viability

SMILES	viability at 10 µM
Cc1noc(C)c1-c1cnc2c(-c3ccc(C(=O)O)cc3)cn([C@@H](C)c3ccccn3)c2c1 [PLX-51107]	62.8%
N#CC1(c2ccccn2)CCN(Cc2cc(C(=O)N3CCCC3)c(=O)n3ccccc23)CC1 [MSD-M1PAM-NC]	63.2%
CC(=O)Nc1nc(CN2CCC[C@H](Cc3cc(C)nc(C)c3)C2)cs1 [JNJ-73924149]	79.9%
Cn1cc(Cl)c2c(Oc3c(F)cc(Nc4cc(Cl)nc(N)n4)cc3F)ccnc21 [BAY-4900]	54.4%
CCn1cc(-c2cccc(C(F)(F)F)c2)c2sc(C(=N)NC3CCS(=O)(=O)CC3)cc2c1=O	84.2%
CCC(=O)N[C@@H]1CC[C@H](C(=O)N(C)c2ccc(-c3nc4ccccc4o3)cc2)C1 [BI 99990]	100%
CC(C)N(CCCNC(=O)Nc1ccc(C(C)(C)C)cc1)C[C@H]1O[C@@H](n2cc(Br)c3c(N)ncnc32)[C@H](O)[C@@H]1O	19.8%
CCCCN(CCCC)C(=O)CN1C[C@@H](c2cc(OC)c3c(c2)OCO3)[C@H](C(=O)O)[C@H]1CC(C)(C)CCC [A-545]	88.5%
CC(=O)NCC(=O)N1[C@@H]2CC[C@H]1c1ccc(Nc3ncc(C(F)(F)F)c(NC4CCC4)n3)cc12 [PF-03814735]	48.4%
O=C(Nc1cccnn1)N1CC(C/C=C/c2cncc(Oc3ccc(C(F)(F)F)cn3)n2)C1	83.6%

System: Colon cancer organoid
Assay: Targeting of F14 CAF-induced therapy resistance in O14 CRC organoid-stroma co-culture. Cell viability is reported without Gefitinib.
Format: functional, Homo sapiens
Conditions: Homo sapiens, Concentration 10 uM; read-out: Cell Viability

SMILES	viability at 10 µM
Cc1noc(C)c1-c1cnc2c(-c3ccc(C(=O)O)cc3)cn([C@@H](C)c3ccccn3)c2c1 [PLX-51107]	17.8%
N#CC1(c2ccccn2)CCN(Cc2cc(C(=O)N3CCCC3)c(=O)n3ccccc23)CC1 [MSD-M1PAM-NC]	93.4%
CC(=O)Nc1nc(CN2CCC[C@H](Cc3cc(C)nc(C)c3)C2)cs1 [JNJ-73924149]	109%
Cn1cc(Cl)c2c(Oc3c(F)cc(Nc4cc(Cl)nc(N)n4)cc3F)ccnc21 [BAY-4900]	85%
CCn1cc(-c2cccc(C(F)(F)F)c2)c2sc(C(=N)NC3CCS(=O)(=O)CC3)cc2c1=O	132%
CCC(=O)N[C@@H]1CC[C@H](C(=O)N(C)c2ccc(-c3nc4ccccc4o3)cc2)C1 [BI 99990]	150%
CC(C)N(CCCNC(=O)Nc1ccc(C(C)(C)C)cc1)C[C@H]1O[C@@H](n2cc(Br)c3c(N)ncnc32)[C@H](O)[C@@H]1O	69.6%
CCCCN(CCCC)C(=O)CN1C[C@@H](c2cc(OC)c3c(c2)OCO3)[C@H](C(=O)O)[C@H]1CC(C)(C)CCC [A-545]	83.6%
CC(=O)NCC(=O)N1[C@@H]2CC[C@H]1c1ccc(Nc3ncc(C(F)(F)F)c(NC4CCC4)n3)cc12 [PF-03814735]	14.8%
O=C(Nc1cccnn1)N1CC(C/C=C/c2cncc(Oc3ccc(C(F)(F)F)cn3)n2)C1	93.5%

System: Colon cancer organoid
Assay: Targeting of F14 CAF-induced therapy resistance in O23 CRC organoid-stroma co-culture. Cell viability is reported without Gefitinib.
Format: functional, Homo sapiens
Conditions: Homo sapiens, Concentration 10 uM; read-out: Cell Viability

SMILES	viability at 10 µM
Cc1noc(C)c1-c1cnc2c(-c3ccc(C(=O)O)cc3)cn([C@@H](C)c3ccccn3)c2c1 [PLX-51107]	109%
N#CC1(c2ccccn2)CCN(Cc2cc(C(=O)N3CCCC3)c(=O)n3ccccc23)CC1 [MSD-M1PAM-NC]	136%
CC(=O)Nc1nc(CN2CCC[C@H](Cc3cc(C)nc(C)c3)C2)cs1 [JNJ-73924149]	125%
Cn1cc(Cl)c2c(Oc3c(F)cc(Nc4cc(Cl)nc(N)n4)cc3F)ccnc21 [BAY-4900]	107%
CCn1cc(-c2cccc(C(F)(F)F)c2)c2sc(C(=N)NC3CCS(=O)(=O)CC3)cc2c1=O	144%
CCC(=O)N[C@@H]1CC[C@H](C(=O)N(C)c2ccc(-c3nc4ccccc4o3)cc2)C1 [BI 99990]	154%
CC(C)N(CCCNC(=O)Nc1ccc(C(C)(C)C)cc1)C[C@H]1O[C@@H](n2cc(Br)c3c(N)ncnc32)[C@H](O)[C@@H]1O	41.3%
CCCCN(CCCC)C(=O)CN1C[C@@H](c2cc(OC)c3c(c2)OCO3)[C@H](C(=O)O)[C@H]1CC(C)(C)CCC [A-545]	142%
CC(=O)NCC(=O)N1[C@@H]2CC[C@H]1c1ccc(Nc3ncc(C(F)(F)F)c(NC4CCC4)n3)cc12 [PF-03814735]	33.7%
O=C(Nc1cccnn1)N1CC(C/C=C/c2cncc(Oc3ccc(C(F)(F)F)cn3)n2)C1	132%

System: Colon cancer organoid
Assay: Targeting of F14 CAF-induced therapy resistance in O14 CRC organoid-stroma co-culture. Cell viability is reported with Gefitinib.
Format: functional, Homo sapiens
Conditions: Homo sapiens, Concentration 10 uM; read-out: Cell Viability

SMILES	viability at 10 µM
Cc1noc(C)c1-c1cnc2c(-c3ccc(C(=O)O)cc3)cn([C@@H](C)c3ccccn3)c2c1 [PLX-51107]	6.08%
N#CC1(c2ccccn2)CCN(Cc2cc(C(=O)N3CCCC3)c(=O)n3ccccc23)CC1 [MSD-M1PAM-NC]	35.2%
CC(=O)Nc1nc(CN2CCC[C@H](Cc3cc(C)nc(C)c3)C2)cs1 [JNJ-73924149]	46.2%
Cn1cc(Cl)c2c(Oc3c(F)cc(Nc4cc(Cl)nc(N)n4)cc3F)ccnc21 [BAY-4900]	30.9%
CCn1cc(-c2cccc(C(F)(F)F)c2)c2sc(C(=N)NC3CCS(=O)(=O)CC3)cc2c1=O	66.7%
CCC(=O)N[C@@H]1CC[C@H](C(=O)N(C)c2ccc(-c3nc4ccccc4o3)cc2)C1 [BI 99990]	37.6%
CC(C)N(CCCNC(=O)Nc1ccc(C(C)(C)C)cc1)C[C@H]1O[C@@H](n2cc(Br)c3c(N)ncnc32)[C@H](O)[C@@H]1O	45.4%
CCCCN(CCCC)C(=O)CN1C[C@@H](c2cc(OC)c3c(c2)OCO3)[C@H](C(=O)O)[C@H]1CC(C)(C)CCC [A-545]	61.5%
CC(=O)NCC(=O)N1[C@@H]2CC[C@H]1c1ccc(Nc3ncc(C(F)(F)F)c(NC4CCC4)n3)cc12 [PF-03814735]	4.93%
O=C(Nc1cccnn1)N1CC(C/C=C/c2cncc(Oc3ccc(C(F)(F)F)cn3)n2)C1	55.5%
